Measurements published in BindingDB's records for doi:10.1016/j.bmcl.2004.06.037 (Alcon Research, 2004).

These compounds were tested against Prostaglandin F2-alpha receptor (Mus musculus) (UniProt P43117) (assay: Efficacy for stimulation of prostanoid FP receptor-linked phosphoinositide turnover in Swiss 3T3 mouse fibroblast cells).
Sequence of Prostaglandin F2-alpha receptor (Mus musculus) (P43117 whole entry, looked up): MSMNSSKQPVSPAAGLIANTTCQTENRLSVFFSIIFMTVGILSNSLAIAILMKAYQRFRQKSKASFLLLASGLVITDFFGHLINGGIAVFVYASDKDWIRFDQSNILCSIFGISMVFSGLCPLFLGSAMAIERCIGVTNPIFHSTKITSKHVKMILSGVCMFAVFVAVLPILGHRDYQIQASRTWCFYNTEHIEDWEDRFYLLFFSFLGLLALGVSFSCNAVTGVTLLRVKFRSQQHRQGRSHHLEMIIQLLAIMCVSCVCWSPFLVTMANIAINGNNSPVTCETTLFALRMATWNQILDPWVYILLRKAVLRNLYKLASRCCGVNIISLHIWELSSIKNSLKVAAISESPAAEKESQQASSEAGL

SMILES | EC50 [nM]
CC(C)OC(=O)CCC/C=C/C[C@@H]1[C@@H](/C=C/C(O)COc2cccc(C(F)(F)F)c2)[C@H](O)C[C@@H]1O (stereo partly drawn) [(E)-7-{(1R,2R,3R,5S)-3,5-Dihydroxy-2-[(E)-3-hydroxy-4-(3-trifluoromethyl-phenoxy)-but-1-enyl]-cyclopentyl}-hept-5-enoic acid isopropyl ester] | 2.7
CCCCC[C@@H](O)/C=C/[C@H]1OC[C@H](O)[C@@H]1C/C=C\CCCC(=O)O [(Z)-7-[(2R,3S,4R)-4-Hydroxy-2-((E)-(R)-3-hydroxy-oct-1-enyl)-tetrahydro-furan-3-yl]-hept-5-enoic acid] | > 10000
CCCCC[C@H](O)/C=C/[C@H]1OC[C@H](O)[C@@H]1C/C=C\CCCC(=O)O [(Z)-7-[(2R,3S,4R)-4-Hydroxy-2-((E)-(S)-3-hydroxy-oct-1-enyl)-tetrahydro-furan-3-yl]-hept-5-enoic acid] | 2380
O=C(O)CC/C=C\CCC[C@H]1[C@@H](O)CO[C@@H]1/C=C/[C@@H](O)COc1ccccc1 [(Z)-8-[(2R,3S,4R)-4-Hydroxy-2-((E)-(R)-3-hydroxy-4-phenoxy-but-1-enyl)-tetrahydro-furan-3-yl]-oct-4-enoic acid] | 57
O=C(O)CCCC/C=C\C[C@H]1[C@@H](O)CO[C@@H]1/C=C/[C@@H](O)COc1ccccc1 [(Z)-8-[(2R,3S,4R)-4-Hydroxy-2-((E)-(R)-3-hydroxy-4-phenoxy-but-1-enyl)-tetrahydro-furan-3-yl]-oct-6-enoic acid] | 293
O=C(O)CC/C=C\CCC[C@H]1[C@@H](O)CO[C@@H]1/C=C/[C@H](O)COc1ccccc1 [(Z)-8-[(2R,3S,4R)-4-Hydroxy-2-((E)-(S)-3-hydroxy-4-phenoxy-but-1-enyl)-tetrahydro-furan-3-yl]-oct-4-enoic acid] | 252
O=C(O)CCCC/C=C\C[C@H]1[C@@H](O)CO[C@@H]1/C=C/[C@H](O)COc1ccccc1 [(Z)-8-[(R)-4-Hydroxy-2-((1R,2S,4S)-3-hydroxy-4-phenoxy-but-1-enyl)-tetrahydro-furan-3-yl]-oct-6-enoic acid] | 573
O=C(O)CC/C=C\CCC[C@H]1[C@@H](O)CO[C@@H]1/C=C/[C@@H](O)COc1cccc(Cl)c1 [(Z)-8-{(2R,3S,4R)-2-[(E)-(R)-4-(3-Chloro-phenoxy)-3-hydroxy-but-1-enyl]-4-hydroxy-tetrahydro-furan-3-yl}-oct-4-enoic acid] | 23
O=C(O)CCCC/C=C\C[C@H]1[C@@H](O)CO[C@@H]1/C=C/[C@@H](O)COc1cccc(Cl)c1 [(Z)-8-{(2R,3S,4R)-2-[(E)-(R)-4-(3-Chloro-phenoxy)-3-hydroxy-but-1-enyl]-4-hydroxy-tetrahydro-furan-3-yl}-oct-6-enoic acid] | 58
O=C(O)CC/C=C\CCC[C@H]1[C@@H](O)CO[C@@H]1/C=C/[C@H](O)COc1cccc(Cl)c1 [(Z)-8-{(2R,3S,4R)-2-[(E)-(S)-4-(3-Chloro-phenoxy)-3-hydroxy-but-1-enyl]-4-hydroxy-tetrahydro-furan-3-yl}-oct-4-enoic acid] | 249
O=C(O)CCCC/C=C\C[C@H]1[C@@H](O)CO[C@@H]1/C=C/[C@H](O)COc1cccc(Cl)c1 [(Z)-8-{(2R,3S,4R)-2-[(E)-(S)-4-(3-Chloro-phenoxy)-3-hydroxy-but-1-enyl]-4-hydroxy-tetrahydro-furan-3-yl}-oct-6-enoic acid] | 194
O=C(O)CC/C=C\CCC[C@H]1[C@@H](O)CO[C@@H]1/C=C/[C@@H](O)COc1cccc(C(F)(F)F)c1 [(Z)-8-{(2R,3S,4R)-4-Hydroxy-2-[(E)-(R)-3-hydroxy-4-(3-trifluoromethyl-phenoxy)-but-1-enyl]-tetrahydro-furan-3-yl}-oct-4-enoic acid] | 67
O=C(O)CCCC/C=C\C[C@H]1[C@@H](O)CO[C@@H]1/C=C/[C@@H](O)COc1cccc(C(F)(F)F)c1 [(Z)-8-{(2R,3S,4R)-4-Hydroxy-2-[(E)-(R)-3-hydroxy-4-(3-trifluoromethyl-phenoxy)-but-1-enyl]-tetrahydro-furan-3-yl}-oct-6-enoic acid] | 187
O=C(O)CC/C=C\CCC[C@H]1[C@@H](O)CO[C@@H]1/C=C/[C@H](O)COc1cccc(C(F)(F)F)c1 [(Z)-8-{(2R,3S,4R)-4-Hydroxy-2-[(E)-(S)-3-hydroxy-4-(3-trifluoromethyl-phenoxy)-but-1-enyl]-tetrahydro-furan-3-yl}-oct-4-enoic acid] | 781
O=C(O)CCCC/C=C\C[C@H]1[C@@H](O)CO[C@@H]1/C=C/[C@H](O)COc1cccc(C(F)(F)F)c1 [(Z)-8-{(2R,3S,4R)-4-Hydroxy-2-[(E)-(S)-3-hydroxy-4-(3-trifluoromethyl-phenoxy)-but-1-enyl]-tetrahydro-furan-3-yl}-oct-6-enoic acid] | 899
CC(C)OC(=O)CCC/C=C/C[C@@H]1[C@@H](CC[C@@H](O)CCc2ccccc2)[C@H](O)C[C@@H]1O [LATANOPROST (PHXA41)] | 34.4
